Tests used:
[1] = biological target: T1, human MMP-1 (Homo sapiens, UniProt P03956); experiment: In vitro MMP-inhibiting activity (fluorimetry), MMP-1; format: biochemical
T1 sequence (P03956 100-469): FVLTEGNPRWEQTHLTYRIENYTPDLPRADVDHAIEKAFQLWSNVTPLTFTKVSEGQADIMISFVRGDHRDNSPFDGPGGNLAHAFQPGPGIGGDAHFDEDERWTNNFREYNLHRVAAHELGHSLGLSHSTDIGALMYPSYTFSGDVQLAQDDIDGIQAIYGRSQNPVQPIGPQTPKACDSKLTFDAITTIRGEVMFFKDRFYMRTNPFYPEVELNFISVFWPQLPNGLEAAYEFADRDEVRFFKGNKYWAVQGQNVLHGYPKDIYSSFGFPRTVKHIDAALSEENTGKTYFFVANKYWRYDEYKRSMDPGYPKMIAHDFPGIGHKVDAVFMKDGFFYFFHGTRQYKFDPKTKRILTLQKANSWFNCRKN
Method: The inventors assayed the in vitro activity of the P947 and P967 gadolinium-chelate contrast products functionalized with matrix metalloproteases inhibitors (MMPs), on human MMP-1 and MMP-3. As regards the affinity of the biovector component, on the receptor, the controls were two peptides:
More precisely, the in vitro MMP-inhibiting activity was evaluated in the following way: • 1. Incubation of the test product in the presence of the MMP enzyme, at 37° C., for a defined period of time, and then measurement of the fluorescence of the medium (t=0). • 2. Induction of the enzyme reaction by addition of the substrate to (which becomes fluorescent when it is cleaved by the enzyme), and then incubation at 37° C. for 40 min. A second measurement of fluorescence is then taken (t=40). • 3. The activity of the MMP enzyme is determined by subtraction of the signal measured by fluorimetry: (t=40)-(t=0). • 4. The results are expressed as percentage inhibition of the activity of the control enzyme. • 5. The standard inhibitory product is TIMP-1.
The products were tested in duplicate, at 10^−5, 10^−7 and 10^−9 M with respect to peptides. Those which contain no peptides were treated in a manner similar to the corresponding functionalized contrast products.

[2] = biological target: T2, MMP-2 (Homo sapiens, UniProt P08253); experiment: In vitro MMP-inhibiting activity (fluorimetry), MMP-2; format: biochemical
T2 sequence (P08253 110-660): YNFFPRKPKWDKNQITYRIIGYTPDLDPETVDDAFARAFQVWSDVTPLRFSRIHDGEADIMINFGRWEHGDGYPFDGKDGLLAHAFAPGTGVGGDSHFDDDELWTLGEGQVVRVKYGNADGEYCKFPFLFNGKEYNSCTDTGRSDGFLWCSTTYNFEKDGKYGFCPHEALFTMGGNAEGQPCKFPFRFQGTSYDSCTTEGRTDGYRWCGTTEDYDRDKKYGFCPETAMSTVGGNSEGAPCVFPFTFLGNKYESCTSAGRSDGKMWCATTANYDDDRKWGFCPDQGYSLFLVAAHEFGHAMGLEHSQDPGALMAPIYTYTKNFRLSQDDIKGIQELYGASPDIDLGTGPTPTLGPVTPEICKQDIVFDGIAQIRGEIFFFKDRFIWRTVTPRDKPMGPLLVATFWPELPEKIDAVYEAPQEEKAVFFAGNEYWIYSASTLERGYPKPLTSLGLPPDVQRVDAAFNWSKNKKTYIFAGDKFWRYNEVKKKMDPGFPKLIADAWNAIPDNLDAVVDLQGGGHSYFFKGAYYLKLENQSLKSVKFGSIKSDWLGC
Method: The inventors also tested the in vitro activity in order to evaluate the inhibitory activity of P947 and of the tetrapeptide on MMP-2, a gelatinase A expressed constitutively in the vascular wall and overexpressed in the case of inflammation.
Control: commercial tetrapeptide (called peptide B in the study): 4-Abz-Gly-Pro-Dleu-Dala-NHOH (Bachem); inhibitor of MMP-1, MMP-2 and MMP-3.
The detailed protocol is as follows for MMP2s: the product tested is added to a 50 mM. Tris-HCl buffer (pH 7.5) containing 150 mM NaCl, 10 mM […], 0.02% NaN3, 0.05% Brij®35 and 0.35 μM MMP-2 activated by incubation for 120 minutes at 37° C. with 6.67 mM APMA. The fluorescence intensity is measured after preincubation for 30 minutes at 37° C., at lambda ex=340 nm and lambda em=405 nm. The enzyme reaction is initiated by adding 6 μM NFF-2, with subsequent incubation for 90 minutes at 37° C.

[3] = biological target: T1, human MMP-1; conditions: value of the peptide component, not of the Gd conjugate, read-out: IC50 OF THE PEPTIDE (LITERATURE); cited from earlier work
[4] = biological target: T2, MMP-2; conditions: read-out: IC50 on MMP-2 (literature); cited from earlier work
[5] = tested on: THP-1 cells; experiment: Uptake of PS-NBD by THP-1 cells, flow cytometry; format: cell-based, human; conditions: PS-NBD range 13, 32 and 64 μM; 24 hours
Method: In vitro validation was performed by comparing the rate of uptake by activated macrophages versus non-activated macrophages (activated THP-1 cells are positive for the PS receptor). […] PS-NBD is a phosphatidylserine comprising only one fatty chain, the other arm linked to the serine head supporting the fluorescence marker NBD.
The THP-1 cell line is a human monocyte line which, after activation, differentiates into macrophages and expresses the phosphatidylserine receptor. These cells were cultured in the presence of phosphatidylserine-NBD.
Protocol with Flow Cytometry • 2 ml of a suspension of THP-1 at 10^6 C/ml are seeded in a 6-well plate. • The THP-1 are activated for 24 hours with 50 nmol/l of PMA. • […] of each of the dilutions (from the solution at 6.25 mmol/l) are incubated for 24 hours. • The excess product is suctioned off. • The cell layer is washed with 1 ml of RPMI without phenol red. • The excess is suctioned off. • The cells are resuspended in 1 ml of PBS (detachment of the cells using a flow of medium over the layer then scraping of the cells which have not detached, using a scraper). • The cells are kept in the dark at 4° C. while awaiting reading. • The fluorescence is read in FL1 at 525 nm by flow cytometry.
PS-NBD range tested: 13, 32 and 64 μM
Groups tested: THP-1/PMA, THP-1/PS-NBD at 5 μM.

[6] = tested on: primary macrophages from WHHL rabbits; experiment: Ex vivo incubation of WHHL rabbit macrophages/aortic tissues with PS-NBD, fluorescence microscopy; format: cell-based; conditions: incubated 18 h ex vivo; 35 μM
Method: In fact macrophages were isolated from aortic arch and mesenteric lymph node samples, and then incubated for 18 h ex vivo in the presence of PS-NBD. […] More precisely, the rabbit was subjected to exsanguinating perfusion with heparinized newborn calf serum before being sacrificed. The aortic arch, the thoracic aorta and the abdominal aorta were removed. The tissue removed were incubated for 18 hours in cell culture medium to which PS-NBD had been added and were then mounted in frozen blocks in order for histological sections to be cut. Certain sections were observed by fluorescence microscopy and others were immunolabelled using an anti-rabbit macrophage antibody (RAM 11).
• Incubation of the samples at 37° C. in 24-well plates in the presence of PS-NBD at 35 μM for 18 hours. • 2 rinses of the arteries in PBS. • Embedding of each piece of aorta in a freezing gel. • Cryofixation. • Storage of the components in a −80° C. freezer. Immunohistochemistry (HEGP) • The mouse primary antibody Ram 11 is used at a 1/100 dilution. • The secondary antibody (goat anti-mouse) is coupled to alkaline phosphatase. • The chromogen used is ADC (supplied by AbCys). • Fast re counterstaining is carried out.

[7] = tested on: macrophages located in the plaques; experiment: Ex vivo distribution of PS-NBD in atheroma plaques of ApoE-KO mice; format: cell-based
Method: For this, samples of heart comprising valves and aortic arch and also the iliac bifurcation are incubated in the presence of PS-NBD.

Compound | SIGNIFICANT INHIBITORY EFFECT ([1]; concentration of peptide 10^−5M) [%] | CONCENTRATION OF PEPTIDE (with significant inhibitory effect) ([1]; tested at 10^−5, 10^−7 and 10^−9 M with respect to peptides) | concentration from which significant inhibitory activity on MMP-2 [2] | IC50 [3] [µM] | IC50 [4] [µM] | ratio of the negative control to the highest concentration (fluorescence, FL1 525 nm) [5] | intracellular accumulation in macrophages [6] | interaction with macrophages in atheroma plaques [7]
4-Abz-Gly-Pro-Dleu-Dala-NHOH [PEPTIDE B] | 46 | 10^−5M | ≥ 10^−5 M | 1 | 30 |  |  | 
CCCCCCCCCCCCCCCC(=O)OC[C@H](COP(=O)(O)OC[C@H](N)C(=O)O)OC(=O)CCCCCNc1ccc([N+](=O)[O-])c2nonc12 [PS-NBD] |  |  |  |  |  | > 50 | large intracellular accumulation | interacts specifically with the macrophages located in the plaques
